Data published in patent US8293914B2, “4-OXO,1-4-dihydroquinoline M1 receptor positive allosteric modulators” (Merck Sharp & Dohme Corp., priority 2008, dated 2012).

These compounds were tested against T1, acetylcholine muscarinic M1 receptor (CHOnfat/hM1 cells) (Homo sapiens, UniProt P11229) (assay: muscarinic M1 FLIPR calcium assay for positive allosteric modulator activity (acetylcholine EC20)). Settings: FLIPR intracellular Ca2+, 4 min preincubation, then EC20 acetylcholine (3 nM final), read-out: IP Value (inflection point).
T1 construct: expressed in transfected cells; host or cells: CHOnfat (CHO) cells expressing hM1
T1 sequence (P11229 1-460): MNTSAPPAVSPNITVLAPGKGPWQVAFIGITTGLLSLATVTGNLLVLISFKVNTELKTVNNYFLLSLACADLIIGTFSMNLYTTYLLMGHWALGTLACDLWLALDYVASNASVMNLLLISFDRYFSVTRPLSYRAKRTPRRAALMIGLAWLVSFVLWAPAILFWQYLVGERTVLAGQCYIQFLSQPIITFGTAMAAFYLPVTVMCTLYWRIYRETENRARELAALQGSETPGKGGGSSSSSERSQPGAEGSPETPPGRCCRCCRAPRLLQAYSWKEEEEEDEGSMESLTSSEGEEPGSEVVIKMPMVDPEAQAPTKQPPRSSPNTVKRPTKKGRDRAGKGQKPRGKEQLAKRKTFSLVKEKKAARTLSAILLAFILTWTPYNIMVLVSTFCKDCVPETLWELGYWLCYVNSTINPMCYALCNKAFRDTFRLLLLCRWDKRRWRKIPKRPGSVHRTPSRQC
Assay type: cell-based
Protocol: The assay studies the effect of one or several concentrations of test compounds on basal or acetylcholine-stimulated Ca^2+ levels using FLIPR.
Compounds are prepared and subjected to a preincubation period of 4 min. Thereafter, a single EC20 concentration of acetylcholine is added to each well (3 nM final). The intracellular Ca^2+ level of each sample is measured and compared to an acetylcholine control to determine any modulatory activity.
Cells: CHOnfat/hM1, hM2, hM3 or hM4 cells are plated 24 hr before the assay at a density of 18,000 cells/well (100 μL) in a 384 well plate. CHOnfat/hM1 and CHOnfat/hM3 Growth Medium: 90% DMEM (Hi Glucose); 10% HI FBS; 2 mM L-glutamine; 0.1 mM NEAA; Pen-Strep; and 1 mg/ml Geneticin, are added. For M2Gqi5CHOnfat and M4Gqi5CHOnfat cells, an additional 600 μg/ml hygromycin is added.
Buffers. […] Dye Loading Buffer: Assay Buffer plus 1% Fetal Bovine Serum and Fluo-4AM/Pluronic Acid Mixture. […] 20% Pluronic Acid Solution stock, with a concentration of 0.04% in Buffer, 0.02% in Assay.
65 μL of 2 mM Fluo-4AM are mixed with 130 μL of 20% Pluronic Acid. The resulting solution and 650 μL FBS is added to the assay buffer for a total volume of 65 mL. Positive Controls: 4-Br-A23187: 10 mM in DMSO; final concentration 10 μM. Acetylcholine: 10 mM in water, working stock at both 20 μM and 30 μM in assay buffer, final concentration of 10 μM. This is used to check the maximum stimulation of the CHOK1/hM1 cells. 20 μM (2×) acetylcholine is added in the preincubation part of the assay, and the 30 μM (3×) stock is added in the second part. (EC20)Acetylcholine: 10 mM in water, working stock of 9 nM (3×), and final concentration in assay is 3 nM. This is used after the preincubation with test compounds. Addition of the EC20 Acetylcholine to each well with a test compound will ascertain any modulator activity. 24 wells contain 3 nM Acetylcholine alone as a control.
Four 96-well plates are combined into a 384-well plate using Mosquito Nanolitre Pipetting System by transferring 1 μl of serial diluted compounds to each well, and 1 mM acetylcholine (100× stock concentration) were added as a control. Using Temo, 49 μl assay buffer is added to each well of the 384-well plate right before assay.
In a 96-well Whatman 2 ml Uniplate, 9 nM Acetylcholine (3×) is pipetted into wells corresponding to the screening compounds, and into control wells. The 30 μM acetylcholine control (3×) is added into control wells, and the 3× agonist plate is transferred into a 384-well plate.
Cells are washed three times with 100 μL, of buffer, leaving 30 μL of buffer in each well. Using Multimek, 30 μL of Dye Loading Buffer is added into each well and incubated at 37° C., 5% CO2 for up to one hr.
After 60 min, the cells are washed three times with 100 μL of buffer, leaving 30 μL of buffer in each well. The cell plate, screening plate, and agonist addition plates are placed on the platform in the FLIPR and the door is closed. A signal test to check background fluorescence and basal fluorescence signal is performed. Laser intensity is adjusted if necessary.
4 min of preincubation with the test compounds is provided to determine any agonist activity on the M1 receptor by comparison to the 1 mM acetylcholine control. After preincubation, the EC20 value of acetylcholine (3 nM final) is added to determine any modulator activity.
The inflection point is calculated from the FLIPR values, and is a measure of activity.

Row | EC50 [µM] | Structure (SMILES)
1 | 0.202 | O=C(O)c1cn(Cc2ccc(-c3ccc(F)nc3)cn2)c2c(F)cccc2c1=O [Example 1, 5-{6-[(3-Carboxy-8-fluoro-4-oxoquinolin-1(4H)-yl)methyl]pyridine-3-yl}-2-fluoropyridinium]
2 | 0.065 | CCn1cc(-c2ccc(Cn3cc(C(=O)O)c(=O)c4c(F)ccc(F)c43)nc2)cn1 [Example 2]
3 | 0.495 | O=C(O)c1cn(Cc2ccc(-c3ccc(F)nc3)cn2)c2cccc(F)c2c1=O [Example 7]
4 | 0.103 | Nc1ccc(-c2ccc(Cn3cc(C(=O)O)c(=O)c4c(F)cccc43)nc2)cn1 [Example 10]
5 | 0.1 | O=C(O)c1cn(Cc2ccc(-c3ccc(N4CCOCC4)nc3)cn2)c2cccc(F)c2c1=O [Example 27]
6 | 0.024 | Nc1cccc(-c2ccc(Cn3cc(C(=O)O)c(=O)c4cccc(F)c43)nc2)c1 [Example 55]
7 | 1.9 | O=C(O)c1cn(Cc2ccc(-n3cccn3)cn2)c2c(F)cccc2c1=O [Example 68]
8 | 0.099 | CS(=O)(=O)Nc1cccc(-c2ccc(Cn3cc(C(=O)O)c(=O)c4cccc(F)c43)nc2)c1 [Example 101]
9 | 0.745 | O=C(O)c1cn(Cc2ccc(-c3ccc(F)cc3F)cn2)c2c(F)cccc2c1=O [Example 108]
10 | 0.302 | COc1ccc(-c2ccc(Cn3cc(C(=O)O)c(=O)c4c(F)ccc(F)c43)nc2)cn1 [Example 134]
11 | 0.114 | O=C(O)c1cn(Cc2ccc(-c3cnn(CC(F)(F)F)c3)cn2)c2c(F)ccc(F)c2c1=O [Example 156]
12 | 2.24 | O=C(O)c1cn(Cc2cccc(-n3cccn3)n2)c2c(F)ccc(F)c2c1=O [Example 160]
13 | 0.037 | Cn1ccc2cc(-c3ccc(Cn4cc(C(=O)O)c(=O)c5cccc(F)c54)cn3)ccc21 [Example 234]
14 | 2.89 | O=C(O)c1cn(Cc2c(F)cncc2F)c2c(F)cccc2c1=O [Example 283]
15 | 2.32 | O=C(O)c1cn(Cc2ncc(-c3ccccc3O)cn2)c2c(F)cccc2c1=O [Example 293]
16 | 7.19 | O=C(O)c1cn(Cc2cnc(-c3ccncc3)cn2)c2c(F)cccc2c1=O [Example 315]
17 | 0.382 | O=C(O)c1cn(Cc2ccc(-c3cccc(O)c3)nn2)c2c(F)cccc2c1=O [Example 319]
18 | 8.66 | O=C(O)c1cn(Cc2ccc(-c3ccccc3F)nn2)c2c(F)cccc2c1=O [Example 329]
19 | 5.25 | O=C(O)c1cn(Cc2ccc(N3CCC3)nn2)c2c(F)cccc2c1=O [Example 334]
20 | 24.8 | C[S+]([O-])c1ccc(Cn2cc(C(=O)O)c(=O)c3cccc(F)c32)nn1 (stereo not shown) [Example 352]
21 | 14.3 | O=C(O)c1cn(Cc2ccc(N3CCCCC3)nn2)c2c(F)cccc2c1=O [Example 372, 8-Fluoro-4-oxo-1-[(6-piperidin-1-ylpyridazin-3-yl)methyl]-1,4-dihydroquinoline-3-carboxylic acid]
22 | ~80 | CS(=O)(=O)c1ccc(Cn2cc(C(=O)O)c(=O)c3cccc(F)c32)nn1 [Example 373, 8-Fluoro-1-{[6-(methylsulfonyl)pyridazin-3-yl]methyl}-4-oxo-1,4-dihydroquinoline-3-carboxylic acid]
